# Test results taken from US20250215039A1, “NUCLEOSIDES FOR TREATING CANCER” (PRIMEFOUR THERAPEUTICS, INC., priority 2022, published 2025).
# Read-outs that look alike come from different tables or passages of the source.
# Tests used:
# [1] = tested on: cancer cell lines; experiment: Cancer cell proliferation activity (CellTiterGlo, 72 h); assay type: cell-based; conditions: 72 h, 72 h, read-out: IC50
# Outline: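 Cells seeded overnight at 37 °C, then dosed with compound at 0.1% final DMSO and incubated 72 h at 37 °C (5% or 10% CO2 by medium).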
# [2] = target: human cytidine deaminase (CDA) (Homo sapiens, UniProt P32320); experiment: Metabolism by human cytidine deaminase (CDA), substrate absorbance at 290 nm
# human cytidine deaminase (CDA), sequence (P32320 whole entry): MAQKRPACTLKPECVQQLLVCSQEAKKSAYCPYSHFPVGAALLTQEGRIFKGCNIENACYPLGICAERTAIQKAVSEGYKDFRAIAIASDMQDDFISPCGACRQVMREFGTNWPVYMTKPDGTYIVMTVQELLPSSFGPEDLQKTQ
smiles,measurement,setting,value
"N#C[C@]1(CO)O[C@@H](n2cc(F)c(N)nc2=O)C[C@@H]1O [Cpd. No. 6, (2R,3S,5R)-5-(4-amino-5-fluoro-2-oxopyrimidin-1(2H)-yl)-3-hydroxy-2-(hydroxymethyl)tetrahydrofuran-2-carbonitrile]",IC50,[1]; 5637 cell line (bladder),> 50 µM
same,IC50,[1]; CLS439 cell line (bladder),> 50 µM
same,IC50,[1]; HS729 cell line (muscle),> 50 µM
same,IC50,[1]; JAR cell line (placenta),> 50 µM
same,IC50,"[1]; U20S cell line, bone",> 50 µM
same,IC50,"[1]; Homo sapiens, 22Rv1, 72 h, 22RV1 cell line (prostate)",> 50 µM
same,IC50,"[1]; Homo sapiens, 786-0, 72 h, 786O cell line (kidney)",> 50 µM
same,IC50,"[1]; Homo sapiens, A204, 72 h, A204 cell line (muscle)",7.27 µM
same,IC50,"[1]; Homo sapiens, A549, 72 h, A549 cell line, lung",> 50 µM
same,IC50,"[1]; Homo sapiens, A673, 72 h, A673 cell line (bone)",> 50 µM
same,IC50,"[1]; Homo sapiens, A2780, 72 h, A2780 cell line (ovary)",> 50 µM
same,IC50,"[1]; Homo sapiens, A-375, 72 h, A375 cell line (skin)",> 50 µM
same,IC50,"[1]; Homo sapiens, A-431, 72 h, A431 cell line (skin)",> 50 µM
same,IC50,"[1]; Homo sapiens, ACHN, ACHN cell line (kidney)",> 50 µM
same,IC50,"[1]; Homo sapiens, ASPC1, 72 h, ASPC1 cell line (pancreas)",> 50 µM
same,IC50,"[1]; Homo sapiens, BT-20, 72 h, BT20 cell line (breast)",> 50 µM
same,IC50,"[1]; Homo sapiens, BXPC-3, 72 h, BXPC3 cell line (pancreas)",> 50 µM
same,IC50,"[1]; Homo sapiens, C-33-A, C33A cell line, endometrial",> 50 µM
same,IC50,"[1]; Homo sapiens, CAKI-1, 72 h, CAKI1 cell line (kidney)",> 50 µM
same,IC50,"[1]; Homo sapiens, COLO 205, 72 h, COLO205 cell line (colon)",> 50 µM
same,IC50,"[1]; Homo sapiens, COLO-678, 72 h, COLO678 cell line (colon)",> 50 µM
same,IC50,"[1]; Homo sapiens, Ca-Ski, CASKI cell line, endometrial",> 50 µM
same,IC50,"[1]; Homo sapiens, Caco-2, 72 h, CACO2 cell line (colon)",> 50 µM
same,IC50,"[1]; Homo sapiens, Calu-6, 72 h, CALU6 cell line (lung)",> 50 µM
same,IC50,"[1]; Homo sapiens, DLD-1, 72 h, DLD1 cell line (colon)",> 50 µM
same,IC50,"[1]; Homo sapiens, DU-145, 72 h, DU145 cell line (prostate)",> 50 µM
same,IC50,"[1]; Homo sapiens, EFO-21, 72 h, EFO21 cell line (ovary)",> 50 µM
same,IC50,"[1]; Homo sapiens, EJ-28, 72 h, EJ28 cell line (bladder)",> 50 µM
same,IC50,"[1]; Homo sapiens, Granta-519, 72 h, GRANTA-519 cell line (hematological)",0.46 µM
same,IC50,"[1]; Homo sapiens, HCT-15, 72 h, HCT15 cell line (colon)",> 50 µM
same,IC50,"[1]; Homo sapiens, HCT-116, 72 h, HCT116 cell line (colon)",> 50 µM
same,IC50,"[1]; Homo sapiens, HEK293, 72 h, HEK293 cell line (kidney)",> 50 µM
same,IC50,"[1]; Homo sapiens, HL-60, 72 h, HL-60 cell line (hematological)",> 50 µM
same,IC50,"[1]; Homo sapiens, HT-29, 72 h, HT29 cell line (colon)",> 50 µM
same,IC50,"[1]; Homo sapiens, HT-1080, 72 h, HT1080 cell line (connective tissue)",> 50 µM
same,IC50,"[1]; Homo sapiens, HeLa, HELA cell line, endometrial",> 50 µM
same,IC50,"[1]; Homo sapiens, HepG2, 72 h, HEPG2 cell line (liver)",> 50 µM
same,IC50,"[1]; Homo sapiens, Hs-578T, HS578T cell line, breast",> 50 µM
same,IC50,"[1]; Homo sapiens, IGROV-1, 72 h, IGROV1 cell line (ovary)",> 50 µM
same,IC50,"[1]; Homo sapiens, IMR-90, 72 h, IMR90 cell line, lung",> 50 µM
same,IC50,"[1]; Homo sapiens, J82, 72 h, J82 cell line (bladder)",> 50 µM
same,IC50,"[1]; Homo sapiens, JEG-3, 72 h, JEG3 cell line (placenta)",> 50 µM
same,IC50,"[1]; Homo sapiens, JIMT-1, 72 h, JIMT1 cell line (breast)",> 50 µM
same,IC50,"[1]; Homo sapiens, K562, 72 h, K-562 cell line (hematological)",> 50 µM
same,IC50,"[1]; Homo sapiens, Kasumi 1, 72 h, KASUMI-1 cell line (hematological)",> 50 µM
same,IC50,"[1]; Homo sapiens, L-363, 72 h, L-363 cell line (hematological)",> 50 µM
same,IC50,"[1]; Homo sapiens, LoVo, LOVO cell line (colon)",> 50 µM
same,IC50,"[1]; Homo sapiens, MCF7, 72 h, MCF7 cell line (breast)",> 50 µM
same,IC50,"[1]; Homo sapiens, MDA-MB-231, 72 h, MDAMB231 cell line (breast)",> 50 µM
same,IC50,"[1]; Homo sapiens, MDA-MB-435, 72 h, MDAMB435 cell line (skin)",> 50 µM
same,IC50,"[1]; Homo sapiens, MDA-MB-436, 72 h, MDAMB436 cell line (breast)",> 50 µM
same,IC50,"[1]; Homo sapiens, MDA-MB-468, 72 h, MDAMB468 cell line (breast)",> 50 µM
same,IC50,"[1]; Homo sapiens, MG-63, 72 h, MG63 cell line (bone)",> 50 µM
same,IC50,"[1]; Homo sapiens, MHH-ES-1, 72 h, MHHES1 cell line (bone)",> 50 µM
same,IC50,"[1]; Homo sapiens, MIA PaCa-2, 72 h, MIAPACA2 cell line (pancreas)",> 50 µM
same,IC50,"[1]; Homo sapiens, MINO, MINO cell line (hematological)",0.68 µM
same,IC50,"[1]; Homo sapiens, MV4-11, 72 h, MV4-11 cell line (hematological)",> 50 µM
same,IC50,"[1]; Homo sapiens, NCI-H23, 72 h, NCI-H23 cell line (lung)",> 50 µM
same,IC50,"[1]; Homo sapiens, NCI-H82, 72 h, NCIH82 cell line (lung)",> 50 µM
same,IC50,"[1]; Homo sapiens, NCI-H292, 72 h, NCIH292 cell line (lung)",> 50 µM
same,IC50,"[1]; Homo sapiens, NCI-H460, 72 h, NCIH460 cell line (lung)",> 50 µM
same,IC50,"[1]; Homo sapiens, OVCAR-3, 72 h, OVCAR3 cell line (ovary)",> 50 µM
same,IC50,"[1]; Homo sapiens, OVCAR-4, 72 h, OVCAR4 cell line (ovary)",> 50 µM
same,IC50,"[1]; Homo sapiens, PANC-1, 72 h, PANC1 cell line (pancreas)",> 50 µM
same,IC50,"[1]; Homo sapiens, PC-3, 72 h, PC3 cell line (prostate)",> 50 µM
same,IC50,"[1]; Homo sapiens, PLC-PRF-5, 72 h, PLCPRF5 cell line (liver)",> 50 µM
same,IC50,"[1]; Homo sapiens, Panc1005, 72 h, PANC1005 cell line (pancreas)",> 50 µM
same,IC50,"[1]; Homo sapiens, RD, RD cell line (muscle)",> 50 µM
same,IC50,"[1]; Homo sapiens, Ramos, RAMOS cell line (hematological)",8.68 µM
same,IC50,"[1]; Homo sapiens, SAOS-2, 72 h, SAOS2 cell line (bone)",2.05 µM
same,IC50,"[1]; Homo sapiens, SF-268, 72 h, SF268 cell line (brain)",> 50 µM
same,IC50,"[1]; Homo sapiens, SF-295, 72 h, SF295 cell line (brain)",> 50 µM
same,IC50,"[1]; Homo sapiens, SK-BR-3, 72 h, SKBR3 cell line (breast)",> 50 µM
same,IC50,"[1]; Homo sapiens, SK-HEP1, 72 h, SKHEP1 cell line (liver)",> 50 µM
same,IC50,"[1]; Homo sapiens, SK-LMS-1, 72 h, SKLMS1 cell line (uterus)",> 50 µM
same,IC50,"[1]; Homo sapiens, SK-MEL-5, 72 h, SKMEL5 cell line, skin",> 50 µM
same,IC50,"[1]; Homo sapiens, SK-MEL-28, 72 h, SKMEL28 cell line (skin)",> 50 µM
same,IC50,"[1]; Homo sapiens, SK-N-AS, SKNAS cell line (brain)",> 50 µM
same,IC50,"[1]; Homo sapiens, SK-N-SH, SKNSH cell line (brain)",> 50 µM
same,IC50,"[1]; Homo sapiens, SK-OV-3, 72 h, SKOV3 cell line (ovary)",> 50 µM
same,IC50,"[1]; Homo sapiens, SNB-75, 72 h, SNB75 cell line (brain)",> 50 µM
same,IC50,"[1]; Homo sapiens, SU-DHL10, 72 h, SU-DHL-10 cell line (hematological)",2.55 µM
same,IC50,"[1]; Homo sapiens, SU-DHL-6, 72 h, SU-DHL-6 cell line (hematological)",> 50 µM
same,IC50,"[1]; Homo sapiens, SW-620, 72 h, SW620 cell line (colon)",> 50 µM
same,IC50,"[1]; Homo sapiens, T-24, 72 h, T24 cell line (bladder)",> 50 µM
same,IC50,"[1]; Homo sapiens, TE-671, 72 h, TE671 cell line (muscle)",> 50 µM
same,IC50,"[1]; Homo sapiens, THP-1, 72 h, THP-1 cell line (hematological)",> 50 µM
same,IC50,"[1]; Homo sapiens, U-87 MG, U87MG cell line (brain)",> 50 µM
same,IC50,"[1]; Homo sapiens, UMUC3, 72 h, UMUC3 cell line (bladder)",> 50 µM
same,IC50,"[1]; Homo sapiens, UO-31, 72 h, UO31 cell line (kidney)",> 50 µM
same,IC50,"[1]; Homo sapiens, WSU-NHL, WSU-NHL cell line (hematological)",2.32 µM
same,IC50,"[1]; MT-3, 72 h, MT3 cell line (breast)",> 50 µM
same,IC50,"[1]; NCI-H358M, NCIH358M cell line (lung)",> 50 µM
same,IC50,"[1]; PBMC, PBMC (hematological)",> 50 µM
same,IC50,"[1]; RD-ES, RDES cell line (bone)",> 50 µM
same,metabolism (deamination) by human CDA (line graph),"[2]; 12 nM CDA, 50 and 200 uM substrate, 37° C., pH 7.5, figure legends FIG. 4-9",not metabolized
same,substrate conversion by CDA (Inactive),"[2]; rate of substrate conversion at 200 μM, could not be fitted",Inactive
